Results on one compound are retold here after patent EP0356325A1, “Pharmaceutical composition containing a slightly water-soluble active substance and at least a glyceride gelled by at least a cellulose polymer” (Aiache, Jean-Marc, priority 1988, dated 1990).

Molecules are shown by their SMILES.

The series in a line: Doxycycline base content and epimer contents after storage (Tableau 2). Format: physicochemical. The source says:
En outre, le tableau 2 présente une comparaison des teneurs en épimères (en p. cent) de deux préparations contenant la doxycycline (sous forme hyclate), avec le principe actif ayant servi à leur formulation. La formulation testée correspond à un produit stable.

Setting [1] is: après 1 mois de conservation à 37°C (étuve sèche), p.cent of area under chromatographic peaks.
[2] abbreviates: après 3 mois de conservation à température ambiante, p.cent of area under chromatographic peaks.

Consider `C[C@H]1c2cccc(O)c2C(=O)C2=C(O)[C@]3(O)C(=O)C(C(N)=O)=C(O)[C@@H](N(C)C)[C@@H]3[C@@H](O)[C@@H]21` [Doxycycline hyclate, hyclate de doxycycline], for which, for the setting “après 1 mois de conservation à 37°C (étuve sèche)”, the Doxycycline base is 858,2 mg/g. Under setting [1], the “6 Epidoxycycline” value is 0,96 p.cent, the Déméclocycline is reported as 1,99 p.cent and the Oxytétracycline was 0,65 p.cent. Also, the Doxycycline base (après 3 mois de conservation à température ambiante) is 899,0 mg/g. Also, under setting [2], the “6 Epidoxycycline” value is 0,30 p.cent, the Déméclocycline is 1,81 p.cent and the Oxytétracycline base is given as 0,43 p.cent.
